Results on 16 compounds are retold here after patent US11512080B2, “CRBN ligands and uses thereof” (Kymera Therapeutics, Inc., priority 2018, dated 2022).

Sequence of His-tagged CRBN-DDB1 complex (Q96SW2 whole entry): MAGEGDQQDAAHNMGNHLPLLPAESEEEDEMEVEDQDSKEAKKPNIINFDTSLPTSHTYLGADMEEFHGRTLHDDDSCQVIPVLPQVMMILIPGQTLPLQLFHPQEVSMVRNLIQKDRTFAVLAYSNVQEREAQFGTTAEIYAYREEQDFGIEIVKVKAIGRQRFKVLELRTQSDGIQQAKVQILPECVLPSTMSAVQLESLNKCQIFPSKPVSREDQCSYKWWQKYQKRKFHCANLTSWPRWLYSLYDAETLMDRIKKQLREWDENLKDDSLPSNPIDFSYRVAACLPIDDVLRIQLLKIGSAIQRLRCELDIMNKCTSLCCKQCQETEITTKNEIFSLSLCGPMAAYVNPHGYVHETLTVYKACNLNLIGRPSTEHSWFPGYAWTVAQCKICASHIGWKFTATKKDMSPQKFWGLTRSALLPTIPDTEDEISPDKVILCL
Sequence of His-tagged CRBN-DDB1 complex (Q16531 whole entry partner): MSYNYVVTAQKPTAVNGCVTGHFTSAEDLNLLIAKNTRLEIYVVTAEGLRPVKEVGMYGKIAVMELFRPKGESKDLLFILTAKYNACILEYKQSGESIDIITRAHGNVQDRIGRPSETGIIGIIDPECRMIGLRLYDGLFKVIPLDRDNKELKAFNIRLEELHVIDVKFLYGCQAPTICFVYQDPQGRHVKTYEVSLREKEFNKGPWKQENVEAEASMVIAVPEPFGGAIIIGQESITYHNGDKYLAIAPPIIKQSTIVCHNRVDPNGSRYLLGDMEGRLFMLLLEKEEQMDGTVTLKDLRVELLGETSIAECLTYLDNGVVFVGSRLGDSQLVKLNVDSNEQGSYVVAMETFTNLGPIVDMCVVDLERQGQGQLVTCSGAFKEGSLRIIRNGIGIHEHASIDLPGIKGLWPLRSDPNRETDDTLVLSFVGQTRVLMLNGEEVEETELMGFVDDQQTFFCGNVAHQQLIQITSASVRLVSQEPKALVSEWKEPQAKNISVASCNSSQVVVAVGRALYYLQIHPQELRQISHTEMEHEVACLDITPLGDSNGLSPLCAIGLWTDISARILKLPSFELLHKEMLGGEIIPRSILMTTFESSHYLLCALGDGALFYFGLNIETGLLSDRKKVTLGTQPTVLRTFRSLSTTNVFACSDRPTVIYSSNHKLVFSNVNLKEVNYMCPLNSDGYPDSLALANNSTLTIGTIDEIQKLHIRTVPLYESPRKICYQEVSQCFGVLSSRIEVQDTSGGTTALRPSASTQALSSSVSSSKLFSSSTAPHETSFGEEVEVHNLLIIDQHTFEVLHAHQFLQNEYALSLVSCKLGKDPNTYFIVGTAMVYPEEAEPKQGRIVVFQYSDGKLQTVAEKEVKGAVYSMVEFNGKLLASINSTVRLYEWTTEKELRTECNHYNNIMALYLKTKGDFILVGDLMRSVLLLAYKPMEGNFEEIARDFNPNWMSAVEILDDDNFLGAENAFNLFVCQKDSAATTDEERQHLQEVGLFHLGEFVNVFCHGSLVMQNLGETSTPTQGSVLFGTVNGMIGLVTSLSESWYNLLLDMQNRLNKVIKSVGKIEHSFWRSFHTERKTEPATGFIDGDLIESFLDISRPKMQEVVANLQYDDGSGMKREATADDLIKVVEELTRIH

One test concerns the target His-tagged CRBN-DDB1 complex (Homo sapiens (Human), UniProt Q96SW2). Description: Time-Resolved Fluorescence Resonance Energy Transfer (TR-FRET) assay. It counts as binding. The conditions noted are these: competition with Cy5-labeled thalidomide (8 nM), 1 hour at room temperature; read-out: CRBN HTRF IC50. The procedure: The mixture were incubated at room temperature for 1 hour. […] Quantitative loss of FRET efficiency as a function of compound concentrations was fitted by a four-parameter Logistic Function using GraphPad Prism 7.0 and the IC50 values were reported for each compound.
The compound numbers correspond to the compound numbers in Table 1.
Broadly, the IC50 is the concentration at which inhibition is half-maximal. For the compound `Cn1cccc(N2CCC(=O)NC2=O)c1=O` [Compound I-143], the IC50 is above 100 µM.
As to `Cn1c(=O)c(N2CCC(=O)NC2=O)cc2ccccc21` [Compound I-144, 1-(1-Methyl-2-oxo-1,2-dihydroquinolin-3-yl)dihydropyrimidine-2,4(1H,3H)-dione], the IC50 was above 100 µM.
In the case of `CN1Cc2ccccc2C(N2CCC(=O)NC2=O)C1=O` (stereo not shown) [Compound I-145, 1-(2-Methyl-3-oxo-1,2,3,4-tetrahydroisoquinolin-4-yl)dihydropyrimidine-2,4(1H,3H)-dione], the IC50 was above 100 µM.
The same measure, in the same setting: the same measure for `Cn1cc2ccccc2c(N2CCC(=O)NC2=O)c1=O` [Compound I-146, 1-(2-Methyl-3-oxo-2,3-dihydroisoquinolin-4-yl)dihydropyrimidine-2,4(1H,3H)-dione]: above 100 µM.

The test is the same for the next values; noted with them: read-out: CRBN HTRF IC50.
Take `CNC(=O)c1ccnc(SC2CCC(=O)NC2=O)c1` (stereo not shown) [Compound I-131, 2-((2,6-Dioxopiperidin-3-yl)thio)-N-methylisonicotinamide]: the IC50 lay in the range of 10 to 100 µM.
Still for that read-out and setting: the same measure for `CN(C)C(=O)c1ccnc(SC2CCC(=O)NC2=O)c1` (stereo not shown) [Compound I-132, 2-((2,6-Dioxopiperidin-3-yl)thio)-N,N-dimethylisonicotinamide]: 10 to 100 µM; for `O=C1CCC(Sc2ccc(C(=O)O)cn2)C(=O)N1` (stereo not shown) [Compound I-133, 6-((2,6-Dioxopiperidin-3-yl)thio)nicotinic Acid]: 10 to 100 µM.
Turning to `N#Cc1cccc(SC2CCC(=O)NC2=O)c1` (stereo not shown) [Compound I-134], the IC50 lay in the range of 10 to 100 µM.
`CCN(CC)c1ccc(SC2CCC(=O)NC2=O)cc1` (stereo not shown) [Compound I-135]: the IC50 is 1 to 10 µM.
Same read-out and setting: in the case of `O=C1CCC(Sc2cccc(C(=O)O)n2)C(=O)N1` (stereo not shown) [Compound I-136] it was 1 to 10 µM; in that of `Cc1c(SC2CCC(=O)NC2=O)cccc1C(=O)O` (stereo not shown) [Compound I-137, 3-((2,6-Dioxopiperidin-3-yl)thio)-2-methylbenzoic acid], 10 to 100 µM.
Take `Cc1coc(-c2ccnc(SC3CCC(=O)NC3=O)c2)n1` (stereo not shown) [Compound I-138, 3-((4-(4-Methyloxazol-2-yl)pyridin-2-yl)thio)piperidine-2,6-dione]: the IC50 lay in the range of 1 to 10 µM.
On to `O=C1CCC(Sc2cc(-c3nn[nH]n3)ccn2)C(=O)N1` (stereo not shown) [Compound I-139, 3-((4-(2H-Tetrazol-5-yl)pyridin-2-yl)thio)piperidine-2,6-dione], for which the IC50 fell in the range of 1 to 10 µM.
In the case of `NC(=O)c1cccnc1SC1CCC(=O)NC1=O` (stereo not shown) [Compound I-140, 2-((2,6-Dioxopiperidin-3-yl)thio)nicotinamide], the IC50 fell in the range of 1 to 10 µM.
`CN(C)C(=O)c1cccnc1SC1CCC(=O)NC1=O` (stereo not shown) [Compound I-141]: the IC50 fell in the range of 10 to 100 µM.
Still for that read-out and setting: the same measure for `COCCOCCNC(=O)c1cccnc1SC1CCC(=O)NC1=O` (stereo not shown) [Compound I-142]: 1 to 10 µM.
